Values belong to the substance of their own block, whether it stands above or below them. Square brackets hold non-standard residues; d marks the D form. Ends that are not written are not given here.
Experiments:
BRIN-BD11 cells = experiment: In vitro insulin secretion in BRIN-BD11 cells (radioimmunoassay); assay type: cell-based, rat; details: 5.6 mM glucose; for insulin secretion compared to glucose alone, FIG. 1b experiment: P<0.05 to P<0.001
Method: BRIN-BD11 cells (ECACC accession number 100330033) were cultured in RPMI 1640 tissue culture medium containing 10% (v/v) foetal calf serum, 1% (v/v) antibiotics (100 U/ml of penicillin and 0.1 mg/ml of streptomycin). BRIN-BD11 cells were originally derived by means of electrofusion of a New England Deaconess Hospital (NEDH) rat pancreatic beta-cell line with an RINm5F cell line in order to produce an immortal, glucose sensitive, insulin secreting cell line (McClenaghan etal., Diabetes. 1996 August; 45(8):1132-40). All cells were maintained in sterile tissue culture flasks (Corning Glass Works, Corning, N.Y., USA) at 37° C. in an atmosphere of 5% CO2 and 95% air, using an LEEC incubator (Laboratory Technical Engineering, Nottingham, UK).
BRIN-BD11 cells were seeded into 24-well plates at a density of 1×10^5 cells and allowed to attach to the wells overnight in an incubator. Before acute studies of insulin were carried out, the cells underwent a 40 min preincubation period at 37° C. with 1.0 ml of Krebs Ringer bicarbonate buffer (115 mM NaCl, 4.7 mM KCl, 1.28 mM CaCl2.2H2O, 1.2 mM KH2PO4, 1.2 mM MgSO4.7H2O, 10 mM NaHCO3, 5 g/l bovine serum albumin (BSA), pH 7.4) supplemented with 1.1 mM glucose. […] The incubations were performed for 20 min at 37° C., after which the buffer solution was removed and 2×200 μl aliquots stored at −20° C. until measurement of insulin levels by radioimmunoassay (RIA).

high fat fed mice = experiment: Acute glucose homeostasis and insulin secretion in high fat fed mice; assay type: in vivo; details: 25 nmol/kg i.p. with glucose 18 mmol/kg
Method: (§1) NIH Swiss male mice (6 weeks old) were housed in an air conditioned room 22±2° C. with a 12 h light: 12 h dark cycle. Animals were maintained on a high fat diet 16 weeks prior to commencement and throughout the study. Drinking water and high fat diet was freely available. All animal studies were performed in accordance with the UK Animals (Scientific Procedures) Act 1986 under project licences held by the inventor.
Freely fed animals were divided into weight-matched groups (n=8) and administered, by intraperitoneal injection, glucose alone (18 mmol/kg body weight) or glucose in combination with each peptide (25 nmol/kg body weight). Blood samples were collected immediately prior to (t=0) and 15, 30 and 60 min post-injection. Whole blood was used to measure glucose values using an Acensia CONTOUR Microfill Blood Glucose Meter and Acensia MICROFILL test strips (Bayer Healthcare, UK). Blood samples for measurement of insulin was collected into fluorine/heparin microcentrifuge tubes (Sarstedt, Numbercht, Germany) at times indicated above and immediately centrifuged using a Beckman microcentrifuge (Beckman Instruments, UK) for 5 min at 13,000 g. Plasma was then aliquoted and stored at −20° C. prior to insulin determination by RIA.

high-fat fed mice = experiment: Persistent glucose-lowering in high-fat fed mice, peptide given 4 hours before glucose load; assay type: in vivo; details: 25 nmol/kg i.p. 4 hours before glucose load
Method: as §1
Freely fed animals were divided into weight-matched groups (n=8) and administered, by intraperitoneal injection, saline vehicle (0.9% NaCl) or saline in combination with each peptide (25 nmol/kg body weight). Food was then immediately withdrawn and 4 hours later all mice received an intraperitoneal injection of glucose alone (18 mmol/kg body weight). Blood samples were collected immediately prior to (t=0) and 15, 30 and 60 min post glucose injection. Whole blood was used to measure glucose values using an Acensia CONTOUR Microfill Blood Glucose Meter and Acensia MICROFILL test strips (Bayer Healthcare, UK).

[1] = biological target: Dipeptidyl peptidase-4 (DPP-4) (Homo sapiens, UniProt P27487); details: pH 7.8
Method: Dipeptidyl peptidase-4 (DPP-4) was used to determine the degradation properties and identify any degradation products. Each peptide (30 μg) was incubated at 37° C. DPP-4 with 455 μl 50 mM triethanolamine-HCl (TEA) pH 7.8 buffer, and the reaction was stopped with 5 μl 10% (v/v) TFA. Time 0, 15, 30, 60, 120, 240 and 480 minutes degradation profiles were measured and HPLC was carried out to identify the degradation pattern and degradation products.

[2] = Incubation in the presence of murine plasma (MALDI-ToF MS, ESI MS); details: 37° C., 50 mM TEA-HCl pH 7.8, up to 24 hours
Method: MALDI-ToF Mass Spectrometry: Following solid phase extraction, samples for each degradation time-point were subsequently mixed with α-cyano-4-hydroxycinnamic acid and applied to a Voyager-DE BioSpectrometry Workstation and mass-to-charge (m/z) ratio verses peak intensity recorded.
ESI Mass Spectrometry: Samples for each degradation time-point were applied to the ESI Ion-trap MS/MS utilizing a mass-to-charge range (m/z) of 0-2000. Resulting mass spectra were analyzed with the turbo sequest algorithm and degradation fragments sequenced against a fasta database containing the native xenin sequence.

Chain of Dipeptidyl peptidase-4 (DPP-4) (P27487 whole entry, species assumed): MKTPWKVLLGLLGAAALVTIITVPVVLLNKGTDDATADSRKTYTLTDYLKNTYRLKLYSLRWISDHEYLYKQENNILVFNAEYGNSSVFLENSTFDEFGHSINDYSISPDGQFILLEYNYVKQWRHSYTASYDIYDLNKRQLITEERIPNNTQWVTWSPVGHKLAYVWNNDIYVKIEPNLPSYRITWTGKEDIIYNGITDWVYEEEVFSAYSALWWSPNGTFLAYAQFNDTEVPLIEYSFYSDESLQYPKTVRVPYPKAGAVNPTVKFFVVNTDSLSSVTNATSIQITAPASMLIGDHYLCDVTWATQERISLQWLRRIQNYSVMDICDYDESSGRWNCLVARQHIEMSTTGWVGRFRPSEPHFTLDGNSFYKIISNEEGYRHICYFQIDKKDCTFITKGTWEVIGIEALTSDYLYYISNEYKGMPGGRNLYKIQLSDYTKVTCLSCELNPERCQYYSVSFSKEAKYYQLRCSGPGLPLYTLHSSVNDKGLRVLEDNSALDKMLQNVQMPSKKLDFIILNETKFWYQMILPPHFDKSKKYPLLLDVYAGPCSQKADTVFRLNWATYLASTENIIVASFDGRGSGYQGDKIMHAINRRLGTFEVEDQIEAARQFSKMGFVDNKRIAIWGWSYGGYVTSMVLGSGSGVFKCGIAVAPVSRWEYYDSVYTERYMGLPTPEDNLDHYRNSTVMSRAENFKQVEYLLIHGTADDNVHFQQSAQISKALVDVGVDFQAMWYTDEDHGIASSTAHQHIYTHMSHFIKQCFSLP

Substance: MLTKFETKSARVKGLSFHPKRPWIL-OH [native xenin]
insulin secretion, peptide alone (BRIN-BD11 cells; 20 min, 10^-12 to 10^-6 M, FIG. 1a/1e): stimulated insulin secretion in a concentration-dependent manner
insulin secretion compared to glucose alone, FIG. 1b experiment (BRIN-BD11 cells): significantly stimulated insulin secretion in a concentration-dependent manner
insulin production compared to glucose alone, concentrations with significant effect (BRIN-BD11 cells; peptide alone, FIG. 1a/1e): significantly enhanced insulin production at concentrations of 10^−8 and 10^−6 M
plasma glucose AUC vs glucose alone (high fat fed mice; 0-60 min): failed to reach overall significance
plasma glucose excursion vs glucose alone (high fat fed mice; 0-60 min, FIG. 2a): not significantly different to animals receiving glucose alone
plasma insulin response vs glucose alone (high fat fed mice; FIG. 2b/2f): not significantly different to animals receiving glucose alone
effect on plasma glucose when administered 4 hours previously (high-fat fed mice): did not elicit any significant effects on plasma glucose
degradation by DPP-IV [1]: completely resistant to degradation by DPP-IV

Substance: (D-Ala^2)GIP: YAEGTFISDYSIAMDKIHQQDFVNWLLAQKGKKNDWKHNITQ, alanine at position 2 is a D-amino acid (Y[dA]EGTFISDYSIAMDKIHQQDFVNWLLAQKGKKNDWKHNITQ)
insulin secretion compared to glucose alone, FIG. 1b experiment (BRIN-BD11 cells): significantly stimulated insulin secretion in a concentration-dependent manner

degradation in murine plasma [2]: stable in the presence of murine plasma
Substance: MLTQFETQSAQVQGLSFHPQQPWIL [xenin-Gln]

From patent US20150025002A1, “PEPTIDES AND PEPTIDE DERIVATIVES BASED ON XENIN” (UNIVERSITY OF ULSTER, priority 2012, published 2015)
